Earlier results as cited in patent publication US9694043B2, “Composition for preventing or treating hearing loss” (UNIVERSITY-INDUSTRY COOPERATION GROUP OF KYUNG HEE …, priority 2011, dated 2017).

Key:
[1] = test system: soldiers; details: 600 U.S. navy soldiers, NAC for 2 weeks during weapons training
[2] = test system: animal model; details: high level of NAC

CC(=O)N[C@@H](CS)C(=O)O [NAC, N-acetyl cysteine]
Permanent hearing loss [1]: decrease in permanent hearing loss
Effect on noise-induced hearing loss in animal model [2]: preventive effects on noise-induced hearing loss but limited effects on permanent hearing loss
